PubChem BioAssay AID248 (DTP/NCI, 2004)
Toxic doses and inconclusive results are not listed. Cut-off read from the data, not from the text of the source: active = T/C of 150% or more; inactive = T/C below 125%.

System: L1210 leukemia ip in BDF1 mice, survival T/C
Experiment: NCI In Vivo Anticancer Drug Screen. Data for tumor model L1210 Leukemia (intraperitoneal) in B6D2F1 (BDF1) mice
Details: endpoint: mean survival time, higher = longer survival
How it was run: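 Each compound was tested against a transplantable tumor grown in mice. The endpoint was survival, with treated animals benchmarked against vehicle controls as a simple ratio.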

[1] = dose: 50.0 mg/kg/injection, schedule: Q01DX001 (ip), vehicle: saline
[2] = dose: 100.0 mg/kg/injection, schedule: Q01DX001 (ip), vehicle: saline
[3] = dose: 100.0 mg/kg/injection, schedule: Q01DX009 (ip), vehicle: Klucel (hydroxypropylcellulose) (HPC)
[4] = dose: 100.0 mg/kg/injection, schedule: Q04DX003 (ip), vehicle: Klucel (hydroxypropylcellulose) (HPC)
[5] = dose: 200.0 mg/kg/injection, schedule: Q01DX001 (ip), vehicle: saline
[6] = dose: 200.0 mg/kg/injection, schedule: Q01DX009 (ip), vehicle: Klucel (hydroxypropylcellulose) (HPC)
[7] = dose: 200.0 mg/kg/injection, schedule: Q04DX003 (ip), vehicle: Klucel (hydroxypropylcellulose) (HPC)
[8] = dose: 400.0 mg/kg/injection, schedule: Q01DX001 (ip), vehicle: saline
[9] = dose: 400.0 mg/kg/injection, schedule: Q01DX009 (ip), vehicle: Klucel (hydroxypropylcellulose) (HPC)
[10] = dose: 400.0 mg/kg/injection, schedule: Q04DX003 (ip), vehicle: Klucel (hydroxypropylcellulose) (HPC)

Measured: T/C

c1ccc2sc(SSc3nc4ccccc4s3)nc2c1
inactive: [1] 96 % of control | [2] 98 % of control | [3] 86 % of control | [4] 97 % of control | [5] 92 % of control | [6] 96 % of control | [7] 94 % of control | [8] 104 % of control | [9] 90 % of control | [10] 90 % of control

O=[As](O)(O)Cc1ccc(F)cc1
inactive: dose: 6.25 mg/kg/injection, schedule: Q01DX009 (ip), vehicle: Klucel (hydroxypropylcellulose) (HPC) 96 % of control | dose: 12.5 mg/kg/injection, schedule: Q01DX009 (ip), vehicle: Klucel (hydroxypropylcellulose) (HPC) 105 % of control | dose: 25.0 mg/kg/injection, schedule: Q01DX009 (ip), vehicle: Klucel (hydroxypropylcellulose) (HPC) 108 % of control

C#CCNc1c(C)cccc1C
inactive: [3] 107 % of control | [4] 98 % of control | [6] 102 % of control | [7] 97 % of control

Cc1ccc(S(=O)(=O)OC2(C(=O)c3ccccc3)CC3CCC2C3)cc1 (configuration not stated)
inactive: dose: 50.0 mg/kg/injection, schedule: Q01DX001 (ip), vehicle: Klucel (hydroxypropylcellulose) (HPC) 93 % of control | dose: 100.0 mg/kg/injection, schedule: Q01DX001 (ip), vehicle: Klucel (hydroxypropylcellulose) (HPC) 96 % of control | dose: 200.0 mg/kg/injection, schedule: Q01DX001 (ip), vehicle: Klucel (hydroxypropylcellulose) (HPC) 94 % of control

Cc1ccc(NC(=O)NCCCCCCNC(=O)Nc2ccc(C)c(Cl)c2)cc1Cl
inactive: dose: 100.0 mg/kg/injection, schedule: Q04DX003 (ip), vehicle: saline with Tween-80 93 % of control | dose: 200.0 mg/kg/injection, schedule: Q01DX009 (ip), vehicle: saline with Tween-80 89 % of control | dose: 200.0 mg/kg/injection, schedule: Q04DX003 (ip), vehicle: saline with Tween-80 92 % of control | dose: 400.0 mg/kg/injection, schedule: Q04DX003 (ip), vehicle: saline with Tween-80 95 % of control

ClCc1nc2ccccc2[nH]1
inactive: [1] 101 % of control | [2] 101 % of control | [4] 105 % of control | [5] 104 % of control | [7] 102 % of control | [8] 110 % of control | [10] 98 % of control

O=C(NC1OCC(O)C(O)C1O)Oc1ccccc1 (configuration not stated)
inactive: dose: 100.0 mg/kg/injection, schedule: Q01DX009 (ip), vehicle: saline 108 % of control | dose: 100.0 mg/kg/injection, schedule: Q04DX003 (ip), vehicle: water 97 % of control | dose: 200.0 mg/kg/injection, schedule: Q01DX009 (ip), vehicle: saline 97 % of control | dose: 200.0 mg/kg/injection, schedule: Q04DX003 (ip), vehicle: water 96 % of control | dose: 400.0 mg/kg/injection, schedule: Q01DX009 (ip), vehicle: saline 101 % of control | dose: 400.0 mg/kg/injection, schedule: Q04DX003 (ip), vehicle: water 100 % of control

CCCCCCCC/C=C\CCCCCCCC(=O)OCCCCCCCCCCCCCCCCCC
inactive: [3] 104 % of control | dose: 100.0 mg/kg/injection, schedule: Q01DX009 (ip), vehicle: saline sonified 105 % of control | [6] 91 % of control | dose: 200.0 mg/kg/injection, schedule: Q01DX009 (ip), vehicle: saline sonified 93 % of control | [9] 105 % of control | dose: 400.0 mg/kg/injection, schedule: Q01DX009 (ip), vehicle: saline sonified 98 % of control

Cc1ccc(C)c2c1C1=C(CCCC1)S2(=O)=O
inactive: [2] 96 % of control | [5] 102 % of control | [8] 104 % of control

Cc1cc(OC(=O)/C=C/C(=O)Oc2cc(C)c(Cl)c(C)c2)cc(C)c1Cl
inactive: [3] 97 % of control | [4] 105 % of control | [6] 95 % of control | [7] 104 % of control | [9] 97 % of control | [10] 104 % of control
